In the experiment the target is fibrils of Aβ40 and Aβ42. Description: Inhibition of N-[^3H-methyl]6-OH-BTA-1 ([^3H]PIB) binding to β-amyloid fibrils, determination of Ki. Details: species or system Human. Particulars: radioligand used for Ki calculation; [L] 4 nM. Here is the method:
Human Aβ40 and Aβ42 peptides (Bachem) were incubated at 0.5 mg/ml in a solution of 10 mM Na2HPO4, 1 mM EDTA (pH 7.4) at 37° C. for 48 h. The formation of fibrils was confirmed by microscopy and binding of [^3H]6-OH-BTA-1 ([^3H]PIB). Fibrils were either used immediately or aliquoted and subsequently stored at −80° C. until use. Solutions of the test substances (>95% purity according to analytical HPLC) or 6-OH-BTA-1 (>95% purity according to analytical HPLC; ABX Biochemicals, Radeberg, Germany) and N—[^3H-methyl]6-OH-BTA-1 were prepared as 1-10 mM dimethyl sulfoxide (DMSO) stocks before dilution into assay buffer. The maximum final concentration of DMSO in the assays was 1%. All assays were performed in 10 mM Na2HPO4. The incubation was performed at 25° C. for 180 min. The bound and free fractions were separated by vacuum filtration through GF/B glass filters (Whatman, Maidstone, UK) using a Perkin Elmer harvester (PerkinElmer, 96 Micro B Filtermat) followed by 6×0.2 ml washes with ice cold phosphate buffer. Filters containing the bound ligand were counted with a liquid scintillation counter (Wallac Trilux, 1450 Microbeta). […] The inhibition of [^3H]PIB binding was measured for five different concentrations of the test compound in question, performed in duplicates.

Turning to `CNc1ccc(-c2nc3ccc(O)cc3s2)cc1` [[^3H]PIB, N-[^3H-methyl]6-OH-BTA-1], the Kd is 4.2 nM.

A word on the Kd: it is a measure of binding affinity in units of concentration.

The values are drawn from patent US20120070374A1, “Compounds for Non-Invasive Measurement of Aggregates of Amyloid Peptides” (priority 2009, published 2012).
